Data set [1] has as its system PT of pooled human plasma. In words: Prothrombin time (PT) human plasma clotting assay. The class given is biochemical.
Data set [2] concerns fXa (bovine fXa). Briefly: Plasma anti-fXa activity assay (modified Coamatic LMWH kit). The class given is in vivo. Also noted: dose or concentration left out as unconfirmed. The settings on record: fondaparinux.
For data set [3] the following is noted: in vivo; cited from earlier work.
Data set [4] deals with PT of rhesus monkey plasma. In words: Prothrombin time in rhesus monkey plasma. The class given is biochemical, rhesus monkeys. Conditions: 250 nM rivaroxaban; baseline 17.5±1.6 sec.
The conditions of data set [5]: cited from earlier work.
The subject of data set [6] is clot formation in human platelet poor plasma. Briefly: Clotting prolongation assay, 96-well plate format (OD405 turbidity). Conditions: 1 U/ml enoxaparin; aPTT reagent. Type of data set: biochemical.
Data set [7] relates to blood loss due to enoxaparin. Also noted: species or system Sprague-Dawley rats. The settings on record: in vivo.
The subject of data set [8] is enoxaparin-induced anticoagulation. In words: Enoxaparin-induced anticoagulation and its reversal in rats. The class given is in vivo.
Data set [9] relates to aPTT of pooled human plasma. In words: aPTT human plasma clotting assay (MLA Electra 800 coagulation timer). The class given is biochemical.
The nature of data set [10]: In vivo mouse model, PK-PD of betrixaban with antidote. Also noted: species or system C57Bl/6 mice. The settings on record: male, C57Bl/6, mouse, plasma, oral, Betrixaban (ng/mL), […] after 15 mg/kg betrixaban PO, 5 min after antidote injection.
The nature of data set [11]: Sustained reversal of betrixaban-induced anticoagulation in rats. The class given is in vivo. The settings on record: rat, plasma, intravenous.
In data set [12] the test system is thrombin generation. In words: Thrombin generation assay in platelet poor plasma. Type of data set: biochemical, human. Conditions: betrixaban 250 nM; in presence of rfVIIa (50-200 nM) and tissue factor; PPP.
Data set [13] concerns blood loss due to fondaparinux. In words: Rat tail transection blood loss model, fondaparinux. The class given is in vivo, Sprague-Dawley rats. Conditions: fondaparinux 25 mg/kg IV bolus, protamine 0.9 mg IV bolus.
Where [14] appears, read: 1 mg/kg/hr, Betrixaban alone (uM), plasma concentration, betrixaban 1.0 mg/kg/hr IV for 30 min, no antidote.
Setting [15] is: Betrixaban + antidote (uM), betrixaban plasma concentration, betrixaban infusion then r-Antidote 5 mg bolus + 5 mg/hr.

In the case of `COc1ccc(-n2nc(C(N)=O)c3c2C(=O)N(c2ccc(N4CCCCC4=O)cc2)CC3)cc1` [apixaban], in [1] (1 μM apixaban), the “PT” value worked out at 16.4 s.

Consider `CO[C@H]1O[C@H](COS(=O)(=O)O)[C@@H](O[C@@H]2O[C@@H](C(=O)O)[C@@H](O[C@H]3O[C@H](COS(=O)(=O)O)[C@@H](O[C@@H]4O[C@H](C(=O)O)[C@@H](O[C@H]5O[C@H](COS(=O)(=O)O)[C@@H](O)[C@H](O)[C@H]5NS(=O)(=O)O)[C@H](O)[C@H]4O)[C@H](OS(=O)(=O)O)[C@H]3NS(=O)(=O)O)[C@H](O)[C@H]2OS(=O)(=O)O)[C@H](O)[C@H]1NS(=O)(=O)O` [fondaparinux], for which the “anti-fXa activity expressed with enoxaparin as the standard” value in data set [2] (human plasma) turned out to be 0.80 U/ml enoxaparin; in [2] (rat plasma), 0.66 U/ml enoxaparin.

Consider `O=C(NC[C@H]1CN(c2ccc(N3CCOCC3=O)cc2)C(=O)O1)c1ccc(Cl)s1` [rivaroxaban], for which, in data set [3], the Reported therapeutic concentration result was “approximately 600 nM”. The same molecule showed a PT in data set [1] (1 μM rivaroxaban, baseline PT 14.1 sec) of 23.4 s. Further, the “PT (average±standard deviation)” value in [4] is 32.3 ± 6.1 s.

Turning to enoxaparin, the “peak anti fXa activity” value in data set [5] (human, in vivo, sc, 1 mg/kg) is given as 1.1 U/ml. Besides, the Mean absolute bioavailability in [5] (human, in vivo, sc) is given as 92%. Besides, the “anti-fXa level corresponding to prescribed dose” value in data set [5] (human, in vivo) is given as “approximately 1 U/mL”. The “extension of clotting time compared to control plasma” value in data set [6] is reported as “greater than 5 fold”. Also, the “maximum blood loss (plateau), of normal rat blood volume” value in [7] is on record as “approximately 5%”. For the same molecule, the “peak anticoagulation in rat plasma (Coatest LMW heparin assay)” value in data set [8] (enoxaparin 1 mg/kg IV bolus) was found to be 1 anti fXa U/ml; in data set [8] (enoxaparin 3 mg/kg IV bolus), 4 anti fXa U/ml. Further, the “whole blood INR” value in data set [8] (rats, enoxaparin 1, 3 and 6 mg/kg IV bolus) was “dose proportional extensions”.

`COc1ccc(NC(=O)c2ccc(C(=N)N(C)C)cc2)c(C(=O)Nc2ccc(Cl)cn2)c1` [betrixaban, [2-({4-[(dimethylamino)iminomethyl]phenyl}carbonylamino)-5-methoxyphenyl]-N-(5-chloro(2-pyridyl))carboxamide]: the “aPTT” value in [9] (300 nM Betrixaban) stood at 61.8 s; in [9] (400 nM betrixaban), 66.3 s. In addition, in [9] (400 nM betrixaban), the “extension of aPTT” value is “more than two folds”. The concentration at […] was determined as 687 ng/mL in [10] (Mean, pd-Antidote treated mice); 381 ng/mL in [10] (Mean, r-Antidote treated mice); 434 ng/mL in data set [10] (individual animal, r-Antidote treated mice). For the same molecule, the concentration at 30 min in data set [11] (1 mg/kg/hr, Betrixaban + antidote (uM), betrixaban plasma concentration, betrixaban 1.0 mg/kg/hr IV for 30 min, antidote group before antidote dosing) was 0.154 µM; in data set [11] (setting [14]), 0.169 µM. Further, the concentration at 35 min was 0.062 µM in data set [11] (setting [14]) and 1.57 µM in data set [11] (setting [15]). Besides, the results for the concentration at 60 min in [11] (setting [14]) and in data set [11] (setting [15]) were 0.045 µM and 1.88 µM, respectively. Also, the concentration at 90 min is 0.048 µM in data set [11] (setting [14]) and 1.19 µM in data set [11] (setting [15]). Also, in data set [12], the “inhibition of fXa by betrixaban (thrombin generation)” value is listed as “about 75%”.

With protamine sulfate, in data set [5] (slow intravenous infusion of protamine sulfate, enoxaparin prescribing information), the “neutralization of enoxaparin activity” value is “up to 60%”. Besides, the “reversal of blood loss due to fondaparinux” value is “failed to display corrective activity” in data set [13] (listed as Protamine) and “did not reverse blood loss” in data set [13] (listed as protamine). The “reversal of enoxaparin-induced anticoagulation (plasma aPTT)” value in data set [8] (rats, enoxaparin 3.0 mg/kg, r-Antidote 5 mg bolus + 5 mg/h or protamine sulfate 0.9 mg) was “sustained reversal”.

The record behind these values is patent publication US20250186563A1, “UNIT DOSE FORMULATION OF ANTIDOTES FOR FACTOR XA INHIBITORS AND METHODS OF USING THE SAME” (Alexion Pharmaceuticals, Inc., priority 2009, published 2025).
